The values below come from patent publication US20260027162A1, “MUCISPIRILLUM COMPOSITIONS AND CANCER TREATMENT METHODS THEREOF” (PRESIDENT AND FELLOWS OF HARVARD COLLEGE, priority 2022, published 2026).

The test relates to human NKT cells. The test can be described thus: XCL1 secretion from human NKT cells (ELISA). It is filed as cell-based. The conditions noted are these: human NKT cell, FIG. 18. The procedure:
Briefly, to generate human NKT cells the buffy coats from human donors' peripheral blood were obtained from RESEARCH BLOOD COMPONENTS LLC and separated using differential centrifugation on a FICOLL density gradient. Magnetically Isolated CD14^neg cells were cultured with 10 U/ml rhIL-2 for 5 days. Then, Vα24^+ hNKT cells were magnetically isolated and incubated for 2 days with mitomycin C-treated human dendritic cells loaded with α-galactosylceramide (α-GalCer)+20 U/ml rhIL-2. Then, the cells were harvested and further expanded for 10 days in complete RPMI medium+20 U/ml rhIL-2, with medium replacement every 2 days. Finally, the purity of Vα24Jα18^+ CD3^+ human NKT cells was estimated using flow cytometry (˜99%) and cells were frozen in complete RPMI medium+10% dimethyl sulfoxide (DMSO) at 5×10^6 cells per vial. For assaying the effect of M. schaedleri supernatant on human NKT cells, frozen cells were thawed and cultured in complete RPMI medium+rhIL-2 at cell density of 200,000 cells per well in a 96-well plate. The cells were treated with either sterile mBHI or M. schaedleri CDM at 20% volume per volume (v/v) for 16 h and then the culture supernatant was collected. As a positive control for activation, anti-human CD3 was used to stimulate the NKT cells. XCL1 concentration was measured using ONESTEP HUMAN XCL1 ELISA (ABCAM) according to the manufacturer's instructions. […]
A general note: ELISA stands for enzyme-linked immunosorbent assay.

Regarding `O=C(O)c1cccnc1` [Pool 3, nicotinic acid], the “NKT XCL1 production, metabolite pools” value was “activity above that of the medium control”.
